Target: T1, hQ23 (HEK-293 cell line stably transfected with one of the members of the KCNQ family) (Homo sapiens, UniProt O43525+O43526)
T1 construct: expressed in transfected cells; host or cells: HEK-293, stably transfected
Assay: Thallium flux assay for KCNQ channel blockers (FLIPR, BTC dye)
Type: cell-based
Conditions: Table 2; thallium flux, HEK-293
Protocol: Thallium Flux Assay for KCNQ channel blockers. Approximately 20,000 cells/well of an HEK-293 cell line stably transfected with one of the members of the KCNQ family were plated into clear-bottom, black-walled, poly-D-lysine coated, 384 well assay plates in 20 μl/well of low chloride plating medium. Low chloride plating medium was composed of the following: sodium gluconate, 109 mM; potassium gluconate, 5.4 mM; hemi-calcium gluconate, 3.6 mM; magnesium sulfate, 0.8 mM; sodium bicarbonate, 26.2 mM; sodium phosphate monobasic, 1.2 mM; glutamine, 2 mM; glucose, 5 mM; HEPES (pH 7.3) 10 mM, 10× concentration of vitamins (Gibco/LifeTechnologies catalog #11120-052) and 1× concentration of amino acids (Gibco/LifeTechnologies catalog #11130-051).
Following overnight incubation in a 5% CO2 incubator at 37° C., the cells in the plates were loaded with 20 μl/well of a dye loading solution containing the acetomethoxy ester of the thallium-sensitive fluorescent dye BTC, BTC-AM (2 μM) and pluronic acid (0.02% w/v) in chloride free assay buffer. Chloride free assay buffer was composed of the following: sodium gluconate, 140 mM; potassium gluconate, 2.5 mM; hemi-calcium gluconate, 6 mM; hemi-magnesium gluconate, 2 mM; glucose, 5 mM; HEPES (pH 7.3), 10 mM.
Following incubation in the dye loading solution for from 45–90 min at room temperature, the dye loading solution was removed by aspiration and replaced with 40 μl/well of chloride free assay buffer.
Prior to addition to cell plates, test compound and standard compounds were dissolved in DMSO to 3 mM concentration. Compounds were then diluted from the 3 mM stock to 100-fold over the final assay concentration in DMSO. Finally, compounds in DMSO were diluted from 100-fold over the final assay concentration to 5-fold over the final assay concentration in chloride free assay buffer.
Ten μl/well of compounds at 5-fold over the final assay concentration were then added to the cell plates. This represents a 1:5 dilution, yielding the final test concentration. The wells used for test compounds were A1–P20. Wells A21–P22 contained a standard ‘blocker’ and a fully efficacious concentration (positive control). Wells A23–P24 contained chloride free assay buffer containing 1% DMSO (negative control).
Following addition of test compounds, the plates were loaded onto the Molecular Devices FLIPR. The 488 nm line of the argon laser was used to excite the BTC and the emission filter was a 540(+/−30) nm. Images were collected at 1 Hz. Ten seconds of baseline were collected and then the FLIPR was used to add 13 μl/well of a stimulus buffer composed of Tl2SO4, 25 mM; sodium gluconate, 30 mM; potassium sulfate, 50 mM; hemi-calcium gluconate, 6 mM; hemi-magnesium gluconate, 2 mM; glucose, 5 mM; HEPES (pH 7.3), 10 mM in chloride free assay buffer. Images were collected for an additional 60 seconds.
For data analysis, the amplitude of the average of the negative controls was subtracted from all wells. The amplitudes of the test compounds were then compared to the value of four standard deviations of the negative control wells. The lowest concentration of a test compound sufficient to generate a signal amplitude greater than or equal to four standard deviations from the amplitude of the negative controls was defined as the minimal active concentration.
For generating IC50 values, compounds were serially diluted in 1:3 volume increments to produce a 10 point concentration series. IC50 values were calculated by fitting the resulting amplitudes to a single-site logistic equation. IC50 was defined as the concentration of test compound required to yield 50% of the response of the positive control.

T1 sequence (O43526 whole entry): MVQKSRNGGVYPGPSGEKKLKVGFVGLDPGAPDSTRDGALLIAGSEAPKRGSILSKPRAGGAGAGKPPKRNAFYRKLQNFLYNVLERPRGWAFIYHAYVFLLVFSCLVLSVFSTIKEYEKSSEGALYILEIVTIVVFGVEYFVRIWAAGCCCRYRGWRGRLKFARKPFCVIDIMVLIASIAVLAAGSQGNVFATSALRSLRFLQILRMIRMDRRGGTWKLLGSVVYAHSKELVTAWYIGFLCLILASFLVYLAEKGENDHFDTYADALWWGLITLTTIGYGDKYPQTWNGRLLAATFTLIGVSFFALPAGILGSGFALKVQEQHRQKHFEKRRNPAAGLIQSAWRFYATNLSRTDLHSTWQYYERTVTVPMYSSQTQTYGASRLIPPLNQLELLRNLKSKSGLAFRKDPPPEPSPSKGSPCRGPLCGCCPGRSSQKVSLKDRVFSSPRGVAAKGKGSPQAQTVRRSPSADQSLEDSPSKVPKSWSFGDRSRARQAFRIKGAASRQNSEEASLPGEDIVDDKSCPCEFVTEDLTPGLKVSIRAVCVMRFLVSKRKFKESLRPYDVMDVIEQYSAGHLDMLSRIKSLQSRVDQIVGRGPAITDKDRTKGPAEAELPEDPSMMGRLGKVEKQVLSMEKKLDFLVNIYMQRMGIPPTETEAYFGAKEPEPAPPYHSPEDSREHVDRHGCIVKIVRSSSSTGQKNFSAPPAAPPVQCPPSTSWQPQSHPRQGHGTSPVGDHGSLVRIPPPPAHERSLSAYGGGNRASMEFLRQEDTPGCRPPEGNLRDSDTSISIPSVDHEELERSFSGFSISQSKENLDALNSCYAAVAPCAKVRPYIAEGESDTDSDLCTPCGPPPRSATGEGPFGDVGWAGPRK
T1 sequence (O43525 whole entry): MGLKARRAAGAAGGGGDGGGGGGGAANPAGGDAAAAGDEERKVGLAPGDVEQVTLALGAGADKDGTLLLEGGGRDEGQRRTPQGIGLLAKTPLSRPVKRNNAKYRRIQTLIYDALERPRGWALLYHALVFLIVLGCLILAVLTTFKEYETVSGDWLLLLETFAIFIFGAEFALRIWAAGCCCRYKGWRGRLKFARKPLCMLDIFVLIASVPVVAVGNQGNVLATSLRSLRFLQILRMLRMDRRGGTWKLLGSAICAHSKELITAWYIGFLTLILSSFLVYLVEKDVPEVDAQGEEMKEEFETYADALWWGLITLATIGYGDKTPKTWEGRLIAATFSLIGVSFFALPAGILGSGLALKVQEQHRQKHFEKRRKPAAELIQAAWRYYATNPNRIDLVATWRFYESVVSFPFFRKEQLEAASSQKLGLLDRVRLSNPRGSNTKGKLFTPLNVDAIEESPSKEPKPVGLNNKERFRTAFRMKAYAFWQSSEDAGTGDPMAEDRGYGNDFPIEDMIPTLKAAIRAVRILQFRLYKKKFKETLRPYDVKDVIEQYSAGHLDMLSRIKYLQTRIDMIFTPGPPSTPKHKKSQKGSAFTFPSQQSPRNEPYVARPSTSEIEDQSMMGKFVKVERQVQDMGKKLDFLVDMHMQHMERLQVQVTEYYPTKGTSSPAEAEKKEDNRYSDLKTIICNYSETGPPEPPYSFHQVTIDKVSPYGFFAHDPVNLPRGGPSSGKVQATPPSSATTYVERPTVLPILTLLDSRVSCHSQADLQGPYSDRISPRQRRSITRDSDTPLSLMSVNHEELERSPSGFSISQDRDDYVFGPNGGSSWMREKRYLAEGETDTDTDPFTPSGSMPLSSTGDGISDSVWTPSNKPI

| Structure (SMILES) | EC50 |
| --- | --- |
| CC1CCC(Nc2ncc(C(=O)NCc3ccc(Cl)cc3Cl)c(C3(c4ccccc4)CC3)n2)CC1 (stereo not drawn) [Example 39, 5-pyrimidinecarboxamide, N-[(2,4-dichlorophenyl)methyl]-2-[(4-methylcyclohexyl)amino]-4-(1-phenylcyclopropyl)-] | 551 nM |
| CC1CCN(c2ncc(C(=O)NCc3ccc(F)cc3F)c(C3(c4ccccc4)CC3)n2)CC1 [Example 43, 5-pyrimidinecarboxamide, N-[(2,4-difluorophenyl)methyl]-2-(4-methyl-1-piperidinyl)-4-(1-phenylcyclopropyl)-] | 919 nM |
| CN(C)CCNc1ncc(C(=O)N(C)CCc2ccccc2)c(C2(c3ccccc3)CC2)n1 [Example 28, 5-pyrimidinecarboxamide, 2-[[2-(dimethylamino)ethyl]amino]-N-methyl-4-(1-phenylcyclopropyl)-N-(2-phenylethyl)-] | 301 nM |

Same assay, conditions: Table 3; thallium flux, HEK-293

| Structure (SMILES) | EC50 |
| --- | --- |
| CN(C)CCNc1ncc(C(=O)N2CCc3ccccc3C2)c(C2(c3ccc(Cl)cc3)CCC2)n1 [Example 54, isoquinoline, 2-[[4-[1-(4-chlorophenyl)cyclobutyl]-2-[[2-(dimethylamino)ethyl]amino]-5-pyrimidinyl]carbonyl]-1,2,3,4-tetrahydro-] | 475 nM |
| CN1CCN(c2ncc(C(=O)NCc3ccc4c(c3)OCO4)c(C3(c4ccc(Cl)cc4)CCC3)n2)CC1 [Example 57, 5-pyrimidinecarboxamide, N-(1,3-benzodioxol-5-ylmethyl)-4-[1-(4-chlorophenyl)cyclobutyl]-2-(4-methyl-1-piperazinyl)-] | 745 nM |

Same assay, conditions: hQ23 cells, thallium flux

| Structure (SMILES) | EC50 |
| --- | --- |
| CCN(C(=O)c1cnc(N2CCCC2)nc1C1(c2ccc(F)cc2)CCCC1)C1CCCCC1 [Example 213, 5-pyrimidinecarboxamide, N-cyclohexyl-N-ethyl-4-[1-(4-fluorophenyl)cyclopentyl]-2-(1-pyrrolidinyl)-] | 680 nM |
| CCC(C)Nc1ncc(C(=O)NC(C)c2cccc3ccccc23)c(C2(c3ccc(Cl)cc3)CCCC2)n1 (stereo not drawn) [Example 162, 5-pyrimidinecarboxamide, 4-[1-(4-chlorophenyl)cyclopentyl]-2-[(1-methylpropyl)amino]-N-[1-(1-naphthalenyl)ethyl]-] | 113 nM |
| CC1CCCN(c2ncc(C(=O)NC(C)c3cccc4ccccc34)c(C3(c4ccc(Cl)cc4)CCCC3)n2)C1 (stereo not drawn) [Example 160, 5-pyrimidinecarboxamide, 4-[1-(4-chlorophenyl)cyclopentyl]-2-(3-methyl-1-piperidinyl)-N-[1-(1-naphthalenyl)ethyl]-] | 30 nM |
| CCC(C)Nc1ncc(C(=O)NC(C)c2ccc(F)cc2)c(C2(c3ccccc3)CCCC2)n1 (stereo not drawn) [Example 135, 5-pyrimidinecarboxamide, N-[1-(4-fluorophenyl)ethyl]-2-[(1-methylpropyl)amino]-4-(1-phenylcyclopentyl)-] | 29 nM |
| CC1CCN(c2ncc(C(=O)NCc3ccc(C(F)(F)F)cc3)c(C3(c4ccc(Cl)cc4)CCCC3)n2)CC1 [Example 203, 5-pyrimidinecarboxamide, 4-[1-(4-chlorophenyl)cyclopentyl]-2-(4-methyl-1-piperidinyl)-N-[[4-(trifluoromethyl)phenyl]methyl]-] | 32 nM |
| CCN(Cc1ccccc1)C(=O)c1cnc(N2CCC(C)CC2)nc1C1(c2ccc(F)cc2)CCCC1 [Example 230, 5-pyrimidinecarboxamide, N-ethyl-4-[1-(4-fluorophenyl)cyclopentyl]-2-(4-methyl-1-piperidinyl)-N-(phenylmethyl)-] | 168 nM |

Results, then the compound that gave them:

| EC50 | Structure (SMILES) |
| --- | --- |
| 192 nM | O=C(NCc1ccc(Cl)cc1Cl)c1cnc(N2CCCC2)nc1C1(c2ccccc2)CCCC1 [Example 111, 5-pyrimidinecarboxamide, N-[(2,4-dichlorophenyl)methyl]-4-(1-phenylcyclopentyl)-2-(1-pyrrolidinyl)-] |
| 10 nM | CC1CCN(c2ncc(C(=O)NCc3cc(F)cc(C(F)(F)F)c3)c(C3(c4ccccc4)CCCC3)n2)CC1 [Example 127, 5-pyrimidinecarboxamide, N-[[3-fluoro-5-(trifluoromethyl)phenyl]methyl]-2-(4-methyl-1-piperidinyl)-4-(1-phenylcylopentyl)-] |
| 161 nM | CCN(Cc1ccccc1)C(=O)c1cnc(N2CCCC(C)C2)nc1C1(c2ccccc2)CCCC1 (stereo not drawn) [Example 85, 5-pyrimidinecarboxamide, N-ethyl-2-(3-methyl-1-piperidinyl)-4-(1-phenylcyclopentyl)-N-(phenylmethyl)-] |
| 68 nM | CC1CCC(Nc2ncc(C(=O)NCc3ccc(Cl)cc3Cl)c(C3(c4ccccc4)CCCC3)n2)CC1 (stereo not drawn) [Example 110, 5-pyrimidinecarboxamide, N-[(2,4-dichlorophenyl)methyl]-2-[(4-methylcyclohexyl)amino]-4-(1-phenylcyclopentyl)-] |
| 15 nM | CC1CCN(c2ncc(C(=O)NC(C)c3cccc4ccccc34)c(C3(c4ccccc4)CCCC3)n2)CC1 (stereo not drawn) [Example 98, 5-pyrimidinecarboxamide, 2-(4-methyl-1-piperidinyl)-N-[1-(1-naphthalenyl)ethyl]-4-(1-phenylcyclopentyl)-] |
| 128 nM | CC1CCC(Nc2ncc(C(=O)NCc3ccc(F)cc3F)c(C3(c4ccc(Cl)cc4)CCCC3)n2)CC1 (stereo not drawn) [Example 186, 5-pyrimidinecarboxamide, 4-[1-(4-chlorophenyl)cyclopentyl]-N-[(2,4-difluorophenyl)methyl]-2-[(4-methylcyclohexyl)amino]-] |

Same assay, conditions: hQ23 cells, thallium flux assay

| Structure (SMILES) | EC50 |
| --- | --- |
| CC(NC(=O)c1cnc(NC2CCCC2)nc1C1(c2ccc(F)cc2)CCCC1)c1cccc2ccccc12 (stereo not drawn) [Example 247, 5-pyrimidinecarboxamide, 2-(cyclopentylamino)-4-[1-(4-fluorophenyl)cyclopentyl]-N-[1-(1-naphthalenyl)ethyl]-] | 92 nM |
| CC1CCCN(c2ncc(C(=O)NCc3cc(F)cc(C(F)(F)F)c3)c(C3(c4ccc(F)cc4)CCCC3)n2)C1 (stereo not drawn) [Example 277, 5-pyrimidinecarboxamide, 4-[1-(4-fluorophenyl)cyclopentyl]-N-[[3-fluoro-5-(trifluoromethyl)phenyl]methyl]-2-(3-methyl-1-piperidinyl)-] | 22 nM |
| CC1CCC(Nc2ncc(C(=O)NC(C)c3ccc(F)cc3)c(C3(c4ccc(F)cc4)CCCC3)n2)CC1 (stereo not drawn) [Example 281, 5-pyrimidinecarboxamide, 4-[1-(4-fluorophenyl)cyclopentyl]-N-[1-(4-fluorophenyl)ethyl]-2-[(4-methylcyclohexyl)amino]-] | 118 nM |
| CC(NC(=O)c1cnc(NC2CC2)nc1C1(c2ccc(F)cc2)CCCC1)c1cccc2ccccc12 (stereo not drawn) [Example 240, 5-pyrimidinecarboxamide, 2-(cyclopropylamino)-4-[1-(4-fluorophenyl)cyclopentyl]-N-[1-(1-naphthalenyl)ethyl]-] | 507 nM |

The remaining lines, values ahead:

| EC50 | Structure (SMILES) |
| --- | --- |
| 10 nM | CC1CCCN(c2ncc(C(=O)NCc3cccc4ccccc34)c(C3(c4ccc(F)cc4)CCCC3)n2)C1 (stereo not drawn) [Example 250, 5-pyrimidinecarboxamide, 4-[1-(4-fluorophenyl)cyclopentyl]-2-(3-methyl-1-piperidinyl)-N-(1-naphthalenylmethyl)-] |
| 235 nM | CC1CCC(Nc2ncc(C(=O)NCc3ccc4c(c3)OCO4)c(C3(c4ccc(F)cc4)CCCC3)n2)CC1 (stereo not drawn) [Example 234, 5-pyrimidinecarboxamide, N-(1,3-benzodioxol-5-ylmethyl)-4-[1-(4-fluorophenyl)cyclopentyl]-2-[(4-methylcyclohexyl)amino]-] |
| 29 nM | CC1CCC(Nc2ncc(C(=O)NCc3cc(F)cc(C(F)(F)F)c3)c(C3(c4ccc(F)cc4)CCCC3)n2)CC1 (stereo not drawn) [Example 274, 5-pyrimidinecarboxamide, 4-[1-(4-fluorophenyl)cyclopentyl]-N-[[3-fluoro-5-(trifluoromethyl)phenyl]methyl]-2-[(4-methylcyclohexyl)amino]-] |

Reference: patent US7091202B2, “4-arylspirocycloalkyl-2-aminopyrimidine carboxamide KCNQ potassium channel modulators” (Bristol-Myers Squibb Company, priority 2004, dated 2006)
